Experimental data as given in patent publication US20080293772A1, “SALTS OF PICOTAMIDE” (priority 2007, published 2008).
Structures can show the parent of a compound that is named as a salt. Where two headings read alike, the source gives them in different places.

Assays:
[1] = man, after oral administration; cited from earlier work
[2] = Picotamide salt stability, degradation determined by HPLC
Experimental: If a spontaneous crystallization occurs after the salt formation, the solid is isolated by filtration.
Column: Phenomenex Hypersil C18-BDS, 4.6×150 mm, 5 μm, flow 1 ml/min, 25° C., detection at 254 nm. Ammonium acetate buffer 10 mM, pH 9, containing 15% methanol. After 17 min, the percentage of methanol is increased to 80%. The sample is dissolved in methanol/water 1:1.
Salts were formed in THF.

[3] = Picotamide stability under acidic conditions (HPLC content); format: physicochemical; settings: hydrochloric acid 1 M, three days
Experimental: The sample is dissolved in methanol/water 1:1.
Picotamide is dissolved in hydrochloric acid 1 M and stored at room temperature and 50° C. for three days.

| Compound | Degradation [2] [%] | Degradation ([2]; salts formed in THF, HPLC) [%] | further results |
| --- | --- | --- | --- |
| COc1ccc(C(=O)NCc2cccnc2)cc1C(=O)NCc1cccnc1 [anhydrous picotamide] | – | – | time needed to reach the maximum inhibitory effect [1]: 8 h |
| O=S(=O)(O)O [sulfate] | 0.1 | – | – |
| citrate | – | 0.2 | – |
| oxalate | – | 0.4 | – |
| maleate | – | 11.5 | – |
| COc1ccc(C(=O)NCc2cccnc2)cc1C(=O)NCc1cccnc1 [hydrochloride] | 0.6 | – | – |
| COc1ccc(C(=O)NCc2cccnc2)cc1C(=O)NCc1cccnc1 [Picotamide, N,N′-bis-(3-picolyl)-4-methoxyisophthalamide] | – | – | picotamide content ([3]; 50° C.): 98.1%; picotamide content ([3]; room temperature): 99.2% |
| Br [hydrobromide] | 35 | – | – |
| COc1ccc(C(=O)NCc2cccnc2)cc1C(=O)NCc1cccnc1 [hydrochloride (anhydrous)] | 0.0 | – | – |
| CC(=O)O [Acetate] | 0.6 | – | – |
| tartrate [reference compound] | – | 0.1 | – |
| fumarate | – | 6.7 | – |
